Data: patent publication US10023615B2, “Efficient transport into white blood cells” (priority 2008, dated 2018)
Ends that are not written are not given here.

Tested on: db/db mice
Experiment: db/db mice model of type 2 diabetes, chronic treatment
Assay type: in vivo, mouse
Excerpt: The aim was to determine the activity of IB(s) peptides and all-D retro-inverso IB(s) peptides and variants thereof in the treatment of Diabetes Type 2, particularly to determine the effect of chronic treatment with XG-102 (SEQ ID NO: 233) in the db/db mice model of type 2 diabetes by evaluating fasting blood glucose levels every third day (28 days)
a) Materials and Methods • i) Animals • A total of twenty (20) male db/db mice (8 weeks old) were obtained from Charles River (Germany). Upon arrival, animals were group housed (n=6-7/group) and offered regular rodent chow (Altromin standard #1324 chow; C. Petersen, Ringsted, Denmark) and water ad libitum unless otherwise stated. • The mice were housed under a 12:12 L/D cycle (lights on at 4:00 and lights off at 16:00) and in temperature and humidity controlled rooms. • ii) Groups and Randomization • On day −4, mice were randomized according to blood glucose level (fasted; blood glucose measured on Biosen S line analyzer (EKF diagnostic, Germany) to participate in one of the following drug treatment groups (n=6): • 1) Vehicle control, S.C. (physiological saline) • 2) XG-102 (SEQ ID NO: 233); 1 mg/kg; s.c. • 3) XG-102 (SEQ ID NO: 233); 10 mg/kg; s.c • All doses listed were calculated for the free-base. Drug purity: 95.28%, peptide content: 78.0%. All compounds were administered sub-cutaneously (s.c.) in a volume of 3 ml/kg. The formulation instructions for vehicle control and XG-102 (SEQ ID NO: 233) were as follows: • First, XG-102 (SEQ ID NO: 233) was dissolved in the vehicle. The formulations (concentrations of 0.33 and 3.3 mg/ml, corresponding to the doses of 1 and 10 mg/kg, respectively) were prepared according to the procedure detailed below. Concentrations were calculated and expressed taking into account test items purity and peptide content (multiplier coefficient was 1.346). • Preparation of a stock solution: the freeze-dried test compound XG-102 (SEQ ID NO: 233) is thawed for one hour minimum and prepared as a stock solution in the vehicle at 1 mM (corresponding to 3.823 mg/mL). Aliquots are prepared for each treatment day and stored at approximately −80° C. Dilutions of this stock solution to the required concentrations are performed on each treatment day; • Storage of the stock solution: at approximately −80° C.; • Storage of the diluted preparations: at room temperature for 24 hours maximum. • Prior to solubilisation, the powder was stored at −20° C. The stability of the stock solution is 3 months at approximately −80° C.; the stability of the diluted formulations for animal dosing is 24 hours at room temperature. Unused diluted material could be stored for up to 7 days if kept at 4-8° C.
c) Experimental Procedure • Following 8 days of acclimatization the mice were treated daily at 08.00 AM for 21 days by SC dosing 8 hours prior to lights out at 04.00 PM according to the outline groups. […] Mice were stratified into two sub-teams of n=6-7 and subsequently the metabolic characterisation were performed on study days 71-72. • iii) Adipokine Panel • Groups 1+3: On three occasions (study days 57, 66 and 108) blood was collected from the tail vein using EDTA coated hematocrite tubes (100 μl). Following centrifugation of blood the plasma was collected and stored at −20° C. until measurement. Then, the following panel of adipokines/cytokines was determined using Luminex based 7-plex: leptin, resistin, MCP-1, PAI-1, TNF, insulin and interleukin-6 (IL-6). • iv) Termination • Groups 1+3 (day 111): The following organs were excised and weighed:
inguinal subcutaneous fat, epididymal fat, retroperitoneal fat, brain, liver, kidney, spleen and heart. All organs described above were samples in 4% PFA for possible future histo-pathological examination. Also, pancreas (en bloc) was sampled for possible stereological and imunohistochemical analysis, and eyes were sampled for possible later analysis of retinopathy. Group 2 (day 28): No tissues or plasma were collected.

## dqsrpvqpflnIttprkprpprrrqrrkkrg (DQSRPVQPFLNLTTPRKPRPPRRRQRRKKRG; not fully specified (some residues); printed as dqsrpvqpflnIttprkprpprrrqrrkkrg) [XG-102]
1 mg/kg, 28 days of dosing
  body weight vs vehicle: no effect
  fasting blood glucose vs vehicle: no effect
10 mg/kg
  dosing time until blood glucose effect evident: 14 days
  fasting blood glucose plateau: approximately 5 mmol/L
10 mg/kg s.c. daily for 21 days, wash-out to day 111
  fasting blood glucose vs vehicle: clear and significant (p<0.001) decrease
10 mg/kg, day 111
  tissue weight of brain, spleen and heart: no significant effects
  tissue weight of fat pads at termination: a significant decrease of epididymal (p<0.05) and retroperitoneal (p<0.01) fat mass
  tissue weight of kidney and liver: a significant decrease of kidney (p<0.05) and liver (p<0.01) mass
10 mg/kg, from day 28 to day 111
  body weight vs vehicle: clear and significant (p<0.001) prevention of body weight increase
Acute dosing period
  general observations: sedation: no signs of sedation
Group B (1 mg/kg s.c. daily)
  reaction of subcutaneous tissue at injection site: mild nodular fibrosis was observed
High dose (10 mg/kg s.c. daily), after approximately two weeks
  reaction of subcutaneous tissue at injection site: nodular fibrosis was observed in the subcutaneous tissue
